biological target: human orexin-2 receptor (Homo sapiens (Human), UniProt O43614); test: FLIPR Ca2+ Flux Assay, orexin-2 receptor antagonism in CHO cells; assay type: cell-based; details: CHO cells expressing the human orexin-2 receptor; agonist 70 pM Ala-6,12 orexin-A; read-out: hOX2 FLIPR IC50
Method: The utility of the compounds in accordance with the present invention as orexin receptor OX1R and/or OX2R antagonists may be readily determined without undue experimentation by methodology well known in the art, including the “FLIPR Ca^2+ Flux Assay” (Okumura et al., Biochem. Biophys. Res. Comm. 280:976-981, 2001). In a typical experiment the OX1 and OX2 receptor antagonistic activity of the compounds of the present invention was determined in accordance with the following experimental method. For intracellular calcium measurements, Chinese hamster ovary (CHO) cells expressing the rat orexin-1 receptor or the human orexin-2 receptor, are grown in Iscove's modified DMEM containing 2 mM L-glutamine, […], 1% hypoxanthine-thymidine supplement, 100 U/ml penicillin, 100 μg/ml streptomycin and 10% heat-inactivated fetal calf serum (FCS). The cells are seeded at 20,000 cells/well into Becton-Dickinson black 384-well clear bottom sterile plates coated with poly-D-lysine. All reagents are from GIBCO-Invitrogen Corp. The seeded plates are incubated overnight at 37° C. and 5% CO2. Ala-6,12 human orexin-A as the agonist is prepared as a 1 mM stock solution in 1% bovine serum albumin (BSA) and diluted in assay buffer (HBSS containing 20 mM HEPES, 0.1% BSA and 2.5 mM probenecid, pH7.4) for use in the assay at a final concentration of 70 pM. Test compounds are prepared as 10 mM stock solution in DMSO, then diluted in 384-well plates, first in DMSO, then assay buffer. On the day of the assay, cells are washed 3 times with 100 μl assay buffer and then incubated for 60 min (37° C., 5% CO2) in 60 μl assay buffer containing […] Fluo-4AM ester, 0.02% pluronic acid, and 1% BSA. The dye loading solution is then aspirated and cells are washed 3 times with 100 μl assay buffer. 30 μl of that same buffer is left in each well. Within the Fluorescent Imaging Plate Reader (FLIPR, Molecular Devices), test compounds are added to the plate in a volume of 25 μl, incubated for 5 min and finally 25 μl of agonist is added. Fluorescence is measured for each well at 1 second intervals for 5 minutes and the height of each fluorescence peak is compared to the height of the fluorescence peak induced by 70 pM Ala-6,12 orexin-A with buffer in place of antagonist. For each antagonist, IC50 value (the concentration of compound needed to inhibit 50% of the agonist response) is determined. Alternatively, compound potency can be assessed by a radioligand binding assay (described in Bergman et. al. Bioorg. Med. Chem. Lett. 2008, 18, 1425-1430) in which the inhibition constant (Ki) is determined in membranes prepared from CHO cells expressing either the OX1 or OX2 receptor. The intrinsic orexin receptor antagonist activity of a compound which may be used in the present invention may be determined by these assays.

Chain of human orexin-2 receptor (O43614 whole entry): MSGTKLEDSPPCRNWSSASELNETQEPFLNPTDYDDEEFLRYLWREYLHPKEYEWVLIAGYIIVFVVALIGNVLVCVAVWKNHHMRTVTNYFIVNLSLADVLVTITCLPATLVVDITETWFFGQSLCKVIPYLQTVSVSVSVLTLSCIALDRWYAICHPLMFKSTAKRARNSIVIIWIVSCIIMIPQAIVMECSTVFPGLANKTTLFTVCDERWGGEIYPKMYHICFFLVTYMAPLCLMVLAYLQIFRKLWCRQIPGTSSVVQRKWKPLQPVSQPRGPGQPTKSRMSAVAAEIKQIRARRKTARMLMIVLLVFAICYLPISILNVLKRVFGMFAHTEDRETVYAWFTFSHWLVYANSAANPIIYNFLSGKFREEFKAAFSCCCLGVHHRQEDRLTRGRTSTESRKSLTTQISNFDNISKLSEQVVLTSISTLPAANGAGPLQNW

Point of comparison: `C[C@@H]1CC[C@@H](Oc2nccn3nccc23)CN1C(=O)c1ccsc1-c1ncccn1` [Example 75, ((2R,5R)-2-methyl-5-(pyrazolo[1,5-α]pyrazin-4-yloxy)piperidin-1-yl) (2-(pyrimidin-2-yl)thiophen-3-yl) methanone], IC50 20.6 nM. Against it:
- C[C@@H]1CC[C@@H](Oc2nccn3c(C(F)F)cnc23)CN1C(=O)c1ccsc1-n1nccn1 [Example 40, (2-(2H-1,2,3-triazol-2-yl)thiophen-3-yl)((2R,5R)-5-((3-(difluoromethyl)imidazo[1,2-α]pyrazin-8-yl)oxy)-2-methylpiperidin-1-yl)methanone] — 2-fold lower, 10.5 nM
- C[C@@H]1CC[C@@H](Oc2nccn3c(C(F)(F)F)cnc23)CN1C(=O)c1cccnc1-n1cccn1 [Example 65, (2-(1H-pyrazol-1-yl)pyridin-3-yl) ((2R,5R)-2-methyl-5-((3-(trifluoromethyl)imidazo [1,2-α]pyrazin-8-yl)oxy)piperidin-1-yl)methanone] — within 1.5-fold, 24 nM
- C[C@@H]1CC[C@@H](Oc2nccn3c(C(F)F)cnc23)CN1C(=O)c1nccnc1-n1cccn1 [Example 46, (3-(1H-pyrazol-1-yl)pyrazin-2-yl)((2R,5R)-5-((3-(difluoromethyl)imidazo[1,2-α]pyrazin-8-yl)oxy)-2-methylpiperidin-1-yl)methanone] — 3-fold higher, 61.9 nM
- C[C@@H]1CC[C@@H](Oc2nccn3ccnc23)CN1C(=O)c1ccccc1CS(C)(=O)=O [Example 77, ((2R,5R)-5-(imidazo[1,2-α]pyrazin-8-yloxy)-2-methylpiperidin-1-yl)(2-((methylsulfonyl)methyl)phenyl) methanone] — within 1.5-fold, 27.9 nM
- C[C@@H]1CC[C@@H](Oc2nccn3cc(C(F)(F)F)nc23)CN1C(=O)c1ccccc1-n1nccn1 [Example 21, (2-(2H-1,2,3-triazol-2-yl)phenyl)((2R,5R)-2-methyl-5-((2-(trifluoromethyl)imidazo[1,2-a]pyrazin-8-yl)oxy)piperidin-1-yl)methanone] — 3.1-fold higher, 63.7 nM
- CC(O)c1cnc2c(O[C@@H]3CC[C@@H](C)N(C(=O)c4ccccc4-n4nccn4)C3)nccn12 (stereo partly drawn) [Example 68, (2-(2H-1,2,3-triazol-2-yl)phenyl)((2R,5R)-5-((3-(1-hydroxyethyl)imidazo[1,2-a]pyrazin-8-yl)oxy)-2-methylpiperidin-1-yl)methanone] — 5.6-fold higher, 115 nM
- C[C@@H]1CC[C@@H](Oc2nccc3ncn(C)c23)CN1C(=O)c1ccccc1-n1nccn1 [Example 99, (2-(2H-1,2,3-triazol-2-yl)phenyl)((2R,5R)-2-methyl-5-((3-methyl-3H-imidazo[4,5-c]pyridin-4-yl)oxy)piperidin-1-yl)methanone] — 2.1-fold higher, 42.3 nM
- C[C@@H]1CC[C@@H](Oc2nccn3c(C(F)(F)F)cnc23)CN1C(=O)c1ccccc1CS(C)(=O)=O [Example 61, ((2R,5R)-2-methyl-5-((3-(trifluoromethyl)imidazo [1,2-α]pyrazin-8-yl)oxy)piperidin-1-yl)(2-((methylsulfonyl)methyl)phenyl)methanone] — 8.3-fold higher, 170 nM
- Cc1cnc2c(O[C@@H]3CC[C@@H](C)N(C(=O)c4ccccc4-n4nccn4)C3)nccn12 [Example 34, (2-(2H-1,2,3-triazol-2-yl)phenyl)((2R,5R)-2-methyl-5-((3-methylimidazo[1,2-a]pyrazin-8-yl)oxy)piperidin-1-yl)methanone] — within 1.5-fold, 16.3 nM
- C[C@@H]1CC[C@@H](Oc2nccn3c(C(O)C(F)F)cnc23)CN1C(=O)c1ccccc1-n1nccn1 (stereo partly drawn) [Example 67, (2-(2H-1,2,3-triazol-2-yl)phenyl)((2R,5R)-5-((3-(2,2-difluoro-1-hydroxyethyl)imidazo[1,2-a]pyrazin-8-yl)oxy)-2-methylpiperidin-1-yl)methanone] — 8.8-fold higher, 182 nM
- C[C@@H]1CC[C@@H](Oc2nccn3c(C#N)cnc23)CN1C(=O)c1ccccc1-n1nccn1 [Example 35, 8-(((3R,6R)-1-(2-(2H-1,2,3-triazol-2-yl)benzoyl)-6-methylpiperidin-3-yl)oxy)imidazo[1,2-a]pyrazine-3-carbonitrile] — 3.6-fold higher, 73.7 nM
- C[C@@H]1CC[C@@H](Oc2nccn3c(C(F)(F)F)cnc23)CN1C(=O)c1ccccc1C1(C#N)CC1 [Example 59, 1-(2-((2R,5R)-2-methyl-5-((3-(trifluoromethyl)imidazo [1,2-α]pyrazin-8-yl)oxy)piperidine-1-carbonyl)phenyl) cyclopropanecarbonitrile] — 1.6-fold lower, 12.8 nM
- Cc1cn2ccnc(O[C@@H]3CC[C@@H](C)N(C(=O)c4ccccc4-n4nccn4)C3)c2n1 [Example 6, (2-(2H-1,2,3-triazol-2-yl)phenyl)((2R,5R)-2-methyl-5-((2-methylimidazo[1,2-a]pyrazin-8-yl)oxy)piperidin-1-yl)methanone] — 2.6-fold lower, 8 nM
- Cc1nc2ccnc(N[C@@H]3CC[C@@H](C)N(C(=O)c4ccccc4-n4nccn4)C3)n2n1 [Example 105, (2-(2H-1,2,3-triazol-2-yl)phenyl)((2R,5R)-2-methyl-5-((2-methyl-[1,2,4]triazolo[1,5-c]pyrimidin-5-yl)amino)piperidin-1-yl)methanone] — within 1.5-fold, 27.6 nM
- C[C@@H]1CC[C@@H](Oc2nccn3c(C(F)(F)F)cnc23)CN1C(=O)c1ccccc1-c1ncccn1 [Example 66, ((2R,5R)-2-methyl-5-((3-(trifluoromethyl)imidazo[1,2-a]pyrazin-8-yl)oxy)piperidin-1-yl)(2-(pyrimidin-2-yl)phenyl)methanone] — within 1.5-fold, 14.9 nM
- C[C@@H]1CC[C@@H](Oc2nccn3ccnc23)CN1C(=O)c1ccccc1CS(C)(=O)=O [Example 2, ((2R,5R)-5-(imidazo[1,2-a]pyrazin-8-yloxy)-2-methylpiperidin-1-yl)(2-((methylsulfonyl)methyl)phenyl)methanone] — 2.9-fold higher, 59 nM
- Cc1cn2ccnc(O[C@@H]3CC[C@@H](C)N(C(=O)c4cccnc4OCC(F)(F)F)C3)c2n1 [Example 16, ((2R,5R)-2-methyl-5-((2-methylimidazo [1,2-α]pyrazin-8-yl)oxy)piperidin-1-yl) (2-(2,2,2-trifluoroethoxy)pyridin-3-yl)methanone] — 1.6-fold higher, 33.5 nM
- C[C@@H]1CC[C@@H](Oc2nccn3cncc23)CN1C(=O)c1ccccc1-n1nccn1 [Example 102, (2-(2H-1,2,3-triazol-2-yl)phenyl)((2R,5R)-5-(imidazo[1,5-a]pyrazin-8-yloxy)-2-methylpiperidin-1-yl)methanone] — within 1.5-fold, 14 nM
- C[C@@H]1CC[C@@H](Oc2cccn3nccc23)CN1C(=O)c1ccccc1-n1nccn1 [Example 90, (2-(2H-1,2,3-triazol-2-yl)phenyl)((2R,5R)-2-methyl-5-(pyrazolo[1,5-a]pyridin-4-yloxy)piperidin-1-yl)methanone] — 6.1-fold higher, 125 nM
- Cc1cn2ccnc(O[C@@H]3CC[C@@H](C)N(C(=O)c4cccnc4OCC(F)F)C3)c2n1 [Example 15, (2-(2,2-difluoroethoxy)pyridin-3-yl)((2R,5R)-2-methyl-5-((2-methylimidazo[1,2-a]pyrazin-8-yl)oxy)piperidin-1-yl)methanone] — 2-fold higher, 41.7 nM
- C[C@@H]1CC[C@@H](Oc2nccn3c(C(F)(F)F)cnc23)CN1C(=O)c1cccnc1OCC(F)(F)F [Example 63, ((2R,5R)-2-methyl-5-((3-(trifluoromethyl)imidazo [1,2-α]pyrazin-8-yl)oxy)piperidin-1-yl) (2-(2,2,2-trifluoroethoxy)pyridin-3-yl)methanone] — within 1.5-fold, 28.2 nM

Reference: patent publication US10526336B2, “Fused heteroaryl derivatives as orexin receptor antagonists” (Merck Sharp & Dohme Corp., priority 2014, dated 2020)
